These are literature values, as cited in US12226530B2, “Lenalidomide gastro-retentive sustained-release tablet and preparation method thereof” (DiQi Pharmaceuticals Co., Ltd., priority 2018, dated 2025).

Read-outs that look alike come from different tables or passages of the source.

Test in data set [1]: not given
The source holds these as a separate data set.

As to `Nc1cccc2c1CN(C1CCC(=O)NC1=O)C2=O` (centres unmarked) [lenalidomide], the Change of concentration result (solvent pH 1.2, 6 hours) is recorded as “unchanged”. Also, the Decrease of concentration runs as follows: (solvent pH 4.5, 6 hours) 6%; (solvent pH 6.8, 6 hours) 16%. Also, the Solubility result is on record as “about 18 mg/ml” in data set [1] (hydrochloric acid buffer with a pH of 1.2) and “lower than 0.6 mg/ml” in data set [1] (pH of solution medium greater than 4.6).
